SMILES strings stand for the structures.

For one test, the target named is T1, active p38 alpha enzyme (Upstate Biotechnology) (Homo sapiens, UniProt Q16539).
T1 construct: purchased Upstate Biotechnology
T1 sequence (Q16539 whole entry): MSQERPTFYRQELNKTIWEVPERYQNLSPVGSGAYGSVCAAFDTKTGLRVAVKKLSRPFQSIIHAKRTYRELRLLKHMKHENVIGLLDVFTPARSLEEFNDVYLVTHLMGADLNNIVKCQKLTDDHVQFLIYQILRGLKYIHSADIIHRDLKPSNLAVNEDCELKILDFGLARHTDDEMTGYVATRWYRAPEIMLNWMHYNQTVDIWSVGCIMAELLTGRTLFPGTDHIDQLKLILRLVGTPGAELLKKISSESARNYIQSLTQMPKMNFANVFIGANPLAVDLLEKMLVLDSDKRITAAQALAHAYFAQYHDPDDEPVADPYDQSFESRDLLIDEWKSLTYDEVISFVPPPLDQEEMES
The experiment in a line: p38α biochemical assay (ATP turnover, luminescent detection, Cambrex PKlight). As to conditions: p38α biochemical assay, Table 1 Biological Activity. Summed up: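 Measures total ATP turnover by luminescence after human p38α phosphorylates full MapkapK2 protein. Final ATP is 1.4 uM, and incubation runs 2 hours at 30C. The buffer includes 100 mM MgCl2, 4 mM CaCl2 and 1 mg/ml BSA.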
As a reminder, the IC50 is the concentration that inhibits the measured activity by half. High values mean a need for much substance, low ones inhibition by little substance. Regarding `CC1=NN(c2ccc(C(=O)N3CCN(Cc4nc(-c5ccc(F)cc5)c(-c5nc(C(=O)NC(C)C)cs5)o4)CC3)cc2)C(=O)C1` [Example 538], the IC50 is > 1 µM.
On to `CC(C)NC(=O)c1csc(-c2c(-c3ccc(F)cc3)noc2CNC(=O)Cc2cccc(O)c2)n1` [Example 619], for which the IC50 is ≤ 1 µM.
As to `CC(C)NC(=O)c1csc(-c2oc(CNC(=O)c3ccc(F)c([N+](=O)[O-])c3)nc2-c2ccc(F)cc2)n1` [Example 237], the IC50 is ≤ 1 µM.
Same read-out and setting: as for `CC(C)NC(=O)c1csc(-c2oc(CN3CCN(C(=O)c4ccccc4O)CC3)nc2-c2ccc(F)cc2)n1` [Example 362], the figure is ≤ 1 µM; as for `Cc1ccccc1C(=O)NCc1onc(-c2ccc(F)cc2)c1-c1nc(C(=O)NC(C)C)cs1` [Example 597], > 1 µM.
With `CC(=O)NCC(=O)NCc1onc(-c2ccc(F)cc2)c1-c1nc(C(=O)NC(C)C)cs1` [Example 585], the IC50 was > 1 µM.
For the molecule `CC(C)NC(=O)c1csc(-c2c(-c3ccc(F)cc3)noc2CNCCO)n1` [Example 32, 2-{3-(4-Fluoro-phenyl)-5-|(2-hydroxy-ethylamino)-methyl|-isoxazol-4-yl}-thiazole-4-carboxylic acid isopropylamide], the IC50 was > 1 µM.
With `CC(C)NC(=O)c1csc(-c2oc(CN3CCN(C(=O)c4ccc(F)cc4F)CC3)nc2-c2ccc(F)cc2)n1` [Example 396], the IC50 is > 1 µM.
The same measure, in the same setting: under `Cc1onc(-c2ccc(Cl)cc2)c1-c1ccn(C(=O)NC2CC2)n1` [Example 7, 3-|3-(4-Chloro-phenyl)-5-methyl-isoxazol-4-yl|-pyrazole-1-carboxylic acid cyclopropylamide] stands > 1 µM; under `CC(C)NC(=O)c1csc(-c2oc(CN3CCN(C(=O)c4cc(C(C)C)cc(C(C)C)c4O)CC3)nc2-c2ccc(F)cc2)n1` [Example 541], > 1 µM; under `CCCCCc1ccc(C(=O)NCc2nc(-c3ccc(F)cc3)c(-c3nc(C(=O)NC(C)C)cs3)o2)cc1` [Example 257], > 1 µM.
Turning to `Cc1cc(C)cc(C(=O)N2CCN(Cc3nc(-c4ccc(F)cc4)c(-c4nc(C(=O)NC(C)C)cs4)o3)CC2)c1` [Example 375], the IC50 is > 1 µM.
`CC(C)NC(=O)c1csc(-c2oc(CN3CCN(C(=O)c4ccccc4C(=O)c4ccc(F)cc4)CC3)nc2-c2ccc(F)cc2)n1` [Example 560]: the IC50 was > 1 µM.
Same read-out and setting: under `Cc1ccccc1CC(=O)N1CCN(Cc2nc(-c3ccc(F)cc3)c(-c3nc(C(=O)NC(C)C)cs3)o2)CC1` [Example 372] stands > 1 µM; under `CC(C)NC(=O)c1csc(-c2oc(CNC(=O)Cc3ccc(Br)cc3)nc2-c2ccc(F)cc2)n1` [Example 294], > 1 µM; under `CC(C)NC(=O)c1csc(-c2oc(CNC(=O)c3cc([N+](=O)[O-])ccc3Cl)nc2-c2ccc(F)cc2)n1` [Example 271], ≤ 1 µM.
For the molecule `Cc1ccc(C(=O)N2CCN(Cc3nc(-c4ccc(F)cc4)c(-c4nc(C(=O)NC(C)C)cs4)o3)CC2)cc1Br` [Example 530], the IC50 was > 1 µM.
Still for that read-out and setting: as for `COc1cccc(OC)c1C(=O)N1CCN(Cc2nc(-c3ccc(F)cc3)c(-c3nc(C(=O)NC(C)C)cs3)o2)CC1` [Example 463], the figure is ≤ 1 µM.
On the same count and under the same terms, under `Cc1ccc(C(=O)NCc2onc(-c3ccc(F)cc3)c2-c2nc(C(=O)NC(C)C)cs2)c(C)c1` [Example 609] stands > 1 µM.

Staying with this test, now noted: p38α kinase; Table 1 Biological Activity.
For the molecule `Cc1nc(-c2ccc(F)cc2)c(-c2nc(C(=O)NCC(C)c3ccccc3)cs2)s1` (centres unmarked) [Example 1773], the IC50 is > 1 µM.
On the same count and under the same terms, under `Cc1nc(-c2ccc(F)cc2)c(-c2nc(C(=O)N3CCN(C(=O)OC(C)(C)C)C[C@H]3CO)cs2)s1` [Example 1943] stands > 1 µM; under `COc1ccc(-c2ccccc2)cc1NCc1nc(-c2ccc(F)cc2)c(-c2nc(C(=O)NC(C)C)cs2)o1` [Example 1370], > 1 µM.
As to `CC(C)NC(=O)c1csc(-c2c(-c3ccc(F)cc3)n[nH]c2C2CCN(C(=O)c3ccccn3)CC2)n1` [Example 2169, 2-{3-(4-Fluoro-phenyl)-5-|1-(pyridine-2-carbonyl)-piperidin-4-yl|-1H-pyrazol-4-yl}-thiazole-4-carboxylic acid isopropylamide], the IC50 was ≤ 1 µM.
As for `Cc1ccc(C)c(CNCc2nc(-c3ccc(F)cc3)c(-c3nc(C(=O)NC(C)C)cs3)o2)c1` [Example 1114], the IC50 is > 1 µM.
The same measure, in the same setting: as for `O=C(NCc1ccccc1F)c1csc(-c2c(-c3ccc(F)cc3)n[nH]c2C2CCNCC2)n1` [Example 2082], the figure is ≤ 1 µM; as for `CC(C)NC(=O)c1csc(-c2oc(CN3CCC(O)(O)CC3)nc2-c2ccc(F)cc2)n1` [Example 1236], > 1 µM; as for `COCC(C)NCc1nc(-c2ccc(F)cc2)c(-c2nc(C(=O)NC(C)C)cs2)o1` (centres unmarked) [Example 1072], > 1 µM.
Turning to `CC(C)NC(=O)c1csc(-c2oc(CN3CCN(c4ccccc4Cl)CC3)nc2-c2ccc(F)cc2)n1` [Example 1301], the IC50 was > 1 µM.
For `O=C(NCCO)c1csc(-c2c(-c3ccc(F)cc3)n[nH]c2C2CCNCC2)n1` [Example 2036], the half-inhibitory concentration (IC50) was ≤ 1 µM.
On the same count and under the same terms, under `CCN(C)Cc1nc(-c2ccc(F)cc2)c(-c2nc(C(=O)NC(C)C)cs2)o1` [Example 1186] stands > 1 µM; under `CC(C)NC(=O)c1csc(-c2c(-c3ccc(F)cc3)n[nH]c2C2CCN(C(=O)c3cccc4ccccc34)CC2)n1` [Example 908], ≤ 1 µM; under `CCNCc1nc(-c2ccc(F)cc2)c(-c2nc(C(=O)NC(C)C)cs2)o1` [Example 1050], > 1 µM.
Still for that read-out and setting: under `Cc1nc(-c2ccc(F)cc2)c(-c2nc(C(=O)N(Cc3cccnc3)Cc3cccnc3)cs2)s1` [Example 1928] stands > 1 µM; under `COc1ccc(OC)c(CCNCc2onc(-c3ccc(F)cc3)c2-c2nc(C(=O)NC(C)C)cs2)c1` [Example 1498], > 1 µM.
As for `CC(C)NC(=O)c1csc(-c2c(-c3ccc(F)cc3)n[nH]c2C2CCN(C(=O)/C=C/c3ccc4c(c3)OCO4)CC2)n1` [Example 969], the IC50 is > 1 µM.
Still for that read-out and setting: as for `Cc1ccc(C)c(NCc2nc(-c3ccc(F)cc3)c(-c3nc(C(=O)NC(C)C)cs3)o2)c1` [Example 1317], the figure is > 1 µM; as for `CC(C)NC(=O)c1csc(-c2c(-c3ccc(F)cc3)n[nH]c2C2CCN(C(=O)c3c(F)cccc3Cl)CC2)n1` [Example 914], > 1 µM.
Still for that read-out and setting: as for `CC(C)NC(=O)c1csc(-c2oc(CNC3CCN(Cc4ccccc4)CC3)nc2-c2ccc(F)cc2)n1` [Example 1174], the figure is > 1 µM; as for `CN1CCN(NC(=O)c2csc(-c3c(-c4ccc(F)cc4)n[nH]c3C3CCNCC3)n2)CC1` [Example 2071], > 1 µM; as for `COc1ccc(NC(=O)c2csc(-c3sc(C)nc3-c3ccc(F)cc3)n2)c(C)c1` [Example 1988], ≤ 1 µM.
Take `CCC(CO)NCc1nc(-c2ccc(F)cc2)c(-c2nc(C(=O)NC(C)C)cs2)o1` (centres unmarked) [Example 1073]: the IC50 was > 1 µM.
The same measure, in the same setting: under `COc1cc(CNC(=O)c2csc(-c3c(-c4ccc(F)cc4)n[nH]c3C3CCNCC3)n2)cc(OC)c1` [Example 2138] stands > 1 µM.
The same measure, in the same setting: as for `CC(C)NC(=O)c1csc(-c2oc(CNC3CCc4ccccc43)nc2-c2ccc(F)cc2)n1` (centres unmarked) [Example 1112], the figure is > 1 µM; as for `CC(C)NC(=O)c1csc(-c2oc(CN(CCC#N)Cc3ccccc3)nc2-c2ccc(F)cc2)n1` [Example 1155], > 1 µM.
The same measure, in the same setting: under `Cc1nc(-c2ccc(F)cc2)c(-c2nc(C(=O)N3CCCCC3C)cs2)s1` (centres unmarked) [Example 1847] stands > 1 µM; under `COCCOCC(=O)N1CCC(c2[nH]nc(-c3ccc(F)cc3)c2-c2nc(C(=O)NC(C)C)cs2)CC1` [Example 2168, 2-(3-(4-Fluoro-phenyl)-5-{1-|2-(2-methoxy-ethoxy)-acetyl|-piperidin-4-yl}-1H-pyrazol-4-yl)-thiazole-4-carboxylic acid isopropylamide], ≤ 1 µM.
Regarding `CC(C)NC(=O)c1csc(-c2oc(CNCCc3ccccc3)nc2-c2ccc(F)cc2)n1` [Example 1099], the IC50 was > 1 µM.
Still for that read-out and setting: under `CC(C)NC(=O)c1csc(-c2oc(CN3CCN(c4ccccc4C#N)CC3)nc2-c2ccc(F)cc2)n1` [Example 1260] stands > 1 µM.
`CC(C)NC(=O)c1csc(-c2c(-c3ccc(F)cc3)n[nH]c2C2CCN(C(=O)c3ccc(C#N)cc3)CC2)n1` [Example 2171, 2-|5-|1-(4-Cyano-benzoyl)-piperidin-4-yl|-3-(4-fluoro-phenyl)-1H-pyrazol-4-yl|-thiazole-4-carboxylic acid isopropylamide]: the IC50 was > 1 µM.
As to `Cc1nc(-c2ccc(F)cc2)c(-c2nc(C(=O)N3C(C)CCCC3C)cs2)s1` (centres unmarked) [Example 1858], the IC50 was > 1 µM.
For `Cc1nc(-c2ccc(F)cc2)c(-c2nc(C(=O)Nc3ccccc3C(C)C)cs2)s1` [Example 1982], the IC50 was > 1 µM.
Still for that read-out and setting: as for `COC(=O)C1CCN(Cc2nc(-c3ccc(F)cc3)c(-c3nc(C(=O)NC(C)C)cs3)o2)CC1` [Example 1232], the figure is > 1 µM; as for `CC(C)NC(=O)c1csc(-c2oc(CNc3cc(F)c(F)cc3F)nc2-c2ccc(F)cc2)n1` [Example 1347], > 1 µM.
Same read-out and setting: under `CC(C)NC(=O)c1csc(-c2oc(CNCCO)nc2-c2ccc(F)cc2)n1` [Example 1057] stands > 1 µM; under `CC(C)NC(=O)c1csc(-c2c(-c3ccc(F)cc3)n[nH]c2C2CCN(C(=O)c3ccc4ccccc4c3O)CC2)n1` [Example 959], > 1 µM.
As for `CC(C)NC(=O)c1csc(-c2c(-c3ccc(F)cc3)n[nH]c2C2CCN(C(=O)c3cccc(Br)c3)CC2)n1` [Example 982], the IC50 is > 1 µM.
As for `Cc1ccc(SCC(=O)N2CCC(c3[nH]nc(-c4ccc(F)cc4)c3-c3nc(C(=O)NC(C)C)cs3)CC2)cc1` [Example 943], the IC50 was > 1 µM.
Still for that read-out and setting: as for `CC(C)NC(=O)c1csc(-c2c(-c3ccc(F)cc3)n[nH]c2C2CCN(C(=O)c3cccc(F)c3)CC2)n1` [Example 841], the figure is > 1 µM; as for `CC(C)NC(=O)c1csc(-c2c(-c3ccc(F)cc3)noc2CNC2CCC2)n1` [Example 1391], > 1 µM.

Values taken from patent US20060252807A1, “Novel ortho-terphenyl inhibitors of p38 kinase and methods of treating inflammatory disorders” (Kalypsys, Inc., priority 2005, published 2006).
